Legend:
[1] = Determination of brain/plasma ratios for NAD0241 and comparison with NAD0180 (Example 56E); type: in vivo, Wistar Han Rats; details: rats, 5 mg/kg i.v., 1 hour post-administration
Experimental: Application of Compound: 5 mg/kg of NAD 241 and NAD0180 each in a vehicle of 1.5 mL/kg PEG 400 Macrogol Ph. Eur. were applied i.v. through the femoral vein to two groups (n=3) of Wistar Han Rats weighing between 240-270 g. The application was performed under anaesthesia, initiated with 3.5% Isofluorane/O2, then maintained at 1% during compound application and suture of the vein. 200 μL of local anaesthetic lidocaine were locally administered. 1 hour after application of the compound 200 μl of blood were obtained by tail vein incision. Immediately following the blood sampling rats were terminated by decapitation after brief CO2 anaesthesia Brains were resected and weighed. Plasma was obtained by centrifugation of the tail vein blood at 13000 g for 20 minutes at 4° C. […]
Establishment of Extraction Recovery and Standard Curve for NAD0241 and NAD0180: 100 μL of plasma or 0.5 g brain tissue homogenate in saturated NaCl, obtained from control rats, were spiked with NAD0241 and NAD0180, respectively, to produce concentrations ranging from 1 ng/mL to 5 μg/mL. […] Quantitative analysis of the extracts was performed by HPLC with fluorescence detection. […] Fluorescence detection and quantitation by peak area was performed with a G1321A (Agilent Tech 1100 series) detector at excitation and emission wavelengths of 317 nm and 542 nm, respectively, for NAD0241, and 315 nm and 565 nm for NAD0180. […]

[2] = Determination of brain/plasma ratios for K252a and NAD002 for comparison with NAD0241 (Example 56F); type: in vivo, Wistar Han Rats; details: rats, 1 hour post-administration
Experimental: Application of Compound: 5 mg/kg of NAD 241 and NAD0180 each in a vehicle of 1.5 mL/kg PEG 400 Macrogol Ph. Eur. were applied i.v. through the femoral vein to two groups (n=3) of Wistar Han Rats weighing between 240-270 g. The application was performed under anaesthesia, initiated with 3.5% Isofluorane/O2, then maintained at 1% during compound application and suture of the vein. 200 μL of local anaesthetic lidocaine were locally administered. 1 hour after application of the compound 200 μl of blood were obtained by tail vein incision. Immediately following the blood sampling rats were terminated by decapitation after brief CO2 anaesthesia Brains were resected and weighed. Plasma was obtained by centrifugation of the tail vein blood at 13000 g for 20 minutes at 4° C. Prior art compounds […] and NAD002 and were assessed using identical conditions of application as used in example 56E to provide a direct comparison with NAD0241 for the ability to penetrate the blood-brain barrier. Volumes of injection for all compounds (including NAD0241) was fixed at 2.3 mL/kg, in average about 500-600 μL per animal. The other parameters were left unchanged. Sampling of body fluids and brain tissue was performed as described in example 56E. Extraction of compounds from brain and plasma was performed as described in example 56E but no concentrated ammonia solution was added prior to extraction of […] and NAD002. HPLC analysis of […] was performed on a 5 μm Merck RP 18 Select B 12.5×4.6 mm column at a flow rate of 0.75 mL/min with isocratic elution by acetonitrile/water 60/40 (v/v). Fluorescent excitation/emission was at 284 nm/476 nm. NAD002 was analyzed on a C 18 shield symmetry 25×4.6 mm (Waters and Owen) at 40° C. using excitation/emission wavelengths of 315/565 nm. Quantitations were performed as under example 56E.

brain/plasma ratio fold difference vs NAD0180 at 1 h ([1]; Wistar Han, rat, brain and plasma, iv): > 30 fold
ability to pass the BBB / blood-brain barrier penetration ([1]; NAD0241 vs NAD0180): pass more readily the BBB
Kp at 1 h ([2]; Wistar Han, rat, brain and plasma, iv, 5 mg/kg, 5 mg/kg i.v., 2.3 mL/kg PEG 400, read-out: brain/plasma ratio): ~1
brain concentration compared with NAD002 [2]: Significantly higher
improvement of brain/plasma ratio over K252a [2]: about two-fold
improvement of brain/plasma ratio over NAD002 [2]: several-fold
plasma levels compared with NAD002 and K252a [2]: Lower
SMILES: NC(=O)[C@]1(N)CC2CC1n1c3ccccc3c3c4c(c5c6ccccc6n2c5c31)C(=O)NC4=O (mixture of isomers) [Compound 5]

From patent US20070149481A1, “N,n-bridged, nitrogen-substituted carbacyclic indolocarbazoles as protein kinase inhibitors” (priority 2002, published 2007)
